The source of these data is ChEMBL document CHEMBL2074386, “Saquinavir, an HIV protease inhibitor, is transported by P-glycoprotein” (J Pharmacol Exp Ther, 1998).

For series [1], the target named is T1, ATP-dependent translocase ABCB1 (Homo sapiens, UniProt P08183). Briefly: TP_TRANSPORTER: transepithelial transport (basal to apical) in HCT-8 cells. It counts as functional, cell-based.
For series [2], the target named is T1, ATP-dependent translocase ABCB1. Briefly: TP_TRANSPORTER: inhibition of Rhodamine 123 transepithelial transport (basal to apical) (R123: 13 uM, Saquinavir: 20uM) in HCT-8 cells. It counts as functional, cell-based. Particulars: hct-8, 20 µM.

T1 sequence (P08183 whole entry): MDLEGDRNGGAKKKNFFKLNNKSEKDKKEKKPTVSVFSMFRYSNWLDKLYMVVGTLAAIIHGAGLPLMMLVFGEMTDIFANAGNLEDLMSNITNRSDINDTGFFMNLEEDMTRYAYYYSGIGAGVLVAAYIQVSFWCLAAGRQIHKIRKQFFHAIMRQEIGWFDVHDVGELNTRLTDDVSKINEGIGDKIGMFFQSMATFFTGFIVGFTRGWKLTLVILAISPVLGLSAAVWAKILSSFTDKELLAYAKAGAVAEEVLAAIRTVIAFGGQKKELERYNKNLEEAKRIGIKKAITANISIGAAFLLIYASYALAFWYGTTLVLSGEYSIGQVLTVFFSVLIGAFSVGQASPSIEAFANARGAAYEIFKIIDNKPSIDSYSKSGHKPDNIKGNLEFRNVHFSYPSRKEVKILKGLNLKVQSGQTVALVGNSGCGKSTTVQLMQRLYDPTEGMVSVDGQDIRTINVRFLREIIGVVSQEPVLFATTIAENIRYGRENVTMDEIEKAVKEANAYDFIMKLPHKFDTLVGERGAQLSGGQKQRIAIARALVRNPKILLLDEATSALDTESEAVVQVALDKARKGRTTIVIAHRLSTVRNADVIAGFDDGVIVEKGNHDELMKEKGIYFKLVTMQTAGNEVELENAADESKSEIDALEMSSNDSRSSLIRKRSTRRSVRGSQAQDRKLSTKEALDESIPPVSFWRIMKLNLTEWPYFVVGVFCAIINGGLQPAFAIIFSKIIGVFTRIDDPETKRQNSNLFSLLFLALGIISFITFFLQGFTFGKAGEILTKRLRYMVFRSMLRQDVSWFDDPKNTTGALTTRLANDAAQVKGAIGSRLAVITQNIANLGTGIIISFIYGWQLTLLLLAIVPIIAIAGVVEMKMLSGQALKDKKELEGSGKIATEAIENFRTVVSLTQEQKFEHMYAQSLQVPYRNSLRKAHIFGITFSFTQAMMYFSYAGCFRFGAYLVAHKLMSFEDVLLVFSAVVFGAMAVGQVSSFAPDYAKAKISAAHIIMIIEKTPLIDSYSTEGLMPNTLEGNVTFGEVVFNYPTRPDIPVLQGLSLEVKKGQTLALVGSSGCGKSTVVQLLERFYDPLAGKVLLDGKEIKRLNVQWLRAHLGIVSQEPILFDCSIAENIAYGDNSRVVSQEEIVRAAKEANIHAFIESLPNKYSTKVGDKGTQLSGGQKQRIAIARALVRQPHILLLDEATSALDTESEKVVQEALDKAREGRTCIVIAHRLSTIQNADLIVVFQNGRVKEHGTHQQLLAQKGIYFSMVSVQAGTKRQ

For the molecule `CC(C)(C)NC(=O)[C@@H]1C[C@@H]2CCCC[C@@H]2CN1C[C@@H](O)[C@H](Cc1ccccc1)NC(=O)[C@H](CC(N)=O)NC(=O)c1ccc2ccccc2n1`, the Activity entry in series [1] is “substrate [+]”; in series [2] it was “inhibitor [(at a rough estimate) 45 % of control]”.
As to `COC(=O)c1ccccc1-c1c2ccc(=N)cc-2oc2cc(N)ccc12.Cl` [RHODAMINE123], the Activity entry in series [1] was “substrate [+]”.
